Measurements published in publication PMC3166797 (Journal of medicinal chemistry, 2011).
Where two headings read alike, the source gives them in different places.

What was measured:
[1] = target: human mGlu4 (Homo sapiens, UniProt Q14833); test: cell-based
[2] = dosed systemically in a nontoxic vehicle; cited from earlier work
[3] = target: rat mGlu4 (Rattus norvegicus, UniProt P31423); test: thallium flux in HEK cells expressing rat mGlu4 with GIRK channels; type: cell-based; details: maximal PAM response normalized to control PAM 1 (PHCCC); mean ± SEM
[4] = microsomal stability; details: for Rat Clint: microsomal intrinsic clearance in vitro; for CLint scaled at 1 µM: rat, microsomes
[5] = target: T1, CYP1A2 (Homo sapiens, UniProt P05177); test: CYP450 enzyme inhibition, CYP1A2
T1 sequence (P05177 1-516): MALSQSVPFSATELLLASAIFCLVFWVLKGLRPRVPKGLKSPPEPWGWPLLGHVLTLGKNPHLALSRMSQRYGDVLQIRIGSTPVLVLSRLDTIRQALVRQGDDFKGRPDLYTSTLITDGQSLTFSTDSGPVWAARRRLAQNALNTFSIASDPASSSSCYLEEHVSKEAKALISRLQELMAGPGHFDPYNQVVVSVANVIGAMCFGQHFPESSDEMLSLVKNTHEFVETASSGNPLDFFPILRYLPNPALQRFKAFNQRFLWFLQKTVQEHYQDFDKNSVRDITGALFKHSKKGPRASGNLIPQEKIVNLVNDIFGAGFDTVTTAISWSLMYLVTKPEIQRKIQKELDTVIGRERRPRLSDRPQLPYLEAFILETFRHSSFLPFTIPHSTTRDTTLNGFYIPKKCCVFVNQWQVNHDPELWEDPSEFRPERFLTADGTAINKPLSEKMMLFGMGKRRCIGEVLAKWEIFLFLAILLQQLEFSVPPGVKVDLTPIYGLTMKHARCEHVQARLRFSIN

[6] = target: CYP2C9 (Homo sapiens, UniProt P11712); test: CYP450 enzyme inhibition, CYP2C9; details: P450 2C9, CYP2C9 inhibition
[7] = target: CYP3A4 (Homo sapiens, UniProt P08684); test: CYP450 enzyme inhibition, CYP3A4
[8] = target: CYP2D6 (Homo sapiens, UniProt P10635); test: CYP450 enzyme inhibition, CYP2D6; details: P450 2D6, CYP2D6 inhibition
[9] = test system: mGlu1; details: cited from earlier work
[10] = test system: acute rodent models of Parkinson's disease; details: icv injection or systemically in a 50% DMSO vehicle; cited from earlier work

human mGlu4, sequence (Q14833 33-912): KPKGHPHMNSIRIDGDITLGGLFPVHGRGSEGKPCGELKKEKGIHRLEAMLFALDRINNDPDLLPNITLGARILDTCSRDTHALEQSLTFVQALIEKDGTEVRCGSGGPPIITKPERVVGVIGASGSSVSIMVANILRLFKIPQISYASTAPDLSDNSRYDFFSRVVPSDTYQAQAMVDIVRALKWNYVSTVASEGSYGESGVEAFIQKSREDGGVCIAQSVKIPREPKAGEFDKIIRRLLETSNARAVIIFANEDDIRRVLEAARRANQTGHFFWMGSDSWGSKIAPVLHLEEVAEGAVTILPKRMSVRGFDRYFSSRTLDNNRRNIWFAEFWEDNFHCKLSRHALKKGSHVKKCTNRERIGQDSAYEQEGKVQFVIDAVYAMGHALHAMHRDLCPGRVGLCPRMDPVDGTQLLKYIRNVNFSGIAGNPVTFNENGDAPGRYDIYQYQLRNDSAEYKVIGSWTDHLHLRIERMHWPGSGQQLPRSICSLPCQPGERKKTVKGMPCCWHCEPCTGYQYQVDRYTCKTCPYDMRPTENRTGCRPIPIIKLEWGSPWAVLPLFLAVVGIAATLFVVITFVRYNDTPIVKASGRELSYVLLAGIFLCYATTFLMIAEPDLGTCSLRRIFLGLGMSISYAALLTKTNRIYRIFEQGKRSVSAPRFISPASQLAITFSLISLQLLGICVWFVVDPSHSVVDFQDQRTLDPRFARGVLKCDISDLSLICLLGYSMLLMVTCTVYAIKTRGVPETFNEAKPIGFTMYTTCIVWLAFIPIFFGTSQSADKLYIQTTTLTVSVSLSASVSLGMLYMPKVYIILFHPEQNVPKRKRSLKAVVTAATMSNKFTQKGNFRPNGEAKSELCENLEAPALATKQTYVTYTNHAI
CYP2C9, sequence (P11712 whole entry): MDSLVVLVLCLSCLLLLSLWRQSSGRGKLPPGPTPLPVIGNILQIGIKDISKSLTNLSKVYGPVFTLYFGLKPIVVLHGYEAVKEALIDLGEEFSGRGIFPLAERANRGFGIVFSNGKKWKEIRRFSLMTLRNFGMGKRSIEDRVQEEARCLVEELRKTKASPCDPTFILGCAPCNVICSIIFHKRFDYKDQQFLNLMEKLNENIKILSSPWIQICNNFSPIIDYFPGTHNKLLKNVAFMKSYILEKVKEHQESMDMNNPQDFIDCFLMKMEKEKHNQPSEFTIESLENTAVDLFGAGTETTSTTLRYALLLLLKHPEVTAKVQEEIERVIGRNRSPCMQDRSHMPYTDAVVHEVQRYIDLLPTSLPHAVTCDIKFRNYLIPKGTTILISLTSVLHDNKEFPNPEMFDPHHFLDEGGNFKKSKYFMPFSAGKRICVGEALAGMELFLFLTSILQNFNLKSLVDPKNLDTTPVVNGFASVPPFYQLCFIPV
CYP3A4, sequence (P08684 whole entry): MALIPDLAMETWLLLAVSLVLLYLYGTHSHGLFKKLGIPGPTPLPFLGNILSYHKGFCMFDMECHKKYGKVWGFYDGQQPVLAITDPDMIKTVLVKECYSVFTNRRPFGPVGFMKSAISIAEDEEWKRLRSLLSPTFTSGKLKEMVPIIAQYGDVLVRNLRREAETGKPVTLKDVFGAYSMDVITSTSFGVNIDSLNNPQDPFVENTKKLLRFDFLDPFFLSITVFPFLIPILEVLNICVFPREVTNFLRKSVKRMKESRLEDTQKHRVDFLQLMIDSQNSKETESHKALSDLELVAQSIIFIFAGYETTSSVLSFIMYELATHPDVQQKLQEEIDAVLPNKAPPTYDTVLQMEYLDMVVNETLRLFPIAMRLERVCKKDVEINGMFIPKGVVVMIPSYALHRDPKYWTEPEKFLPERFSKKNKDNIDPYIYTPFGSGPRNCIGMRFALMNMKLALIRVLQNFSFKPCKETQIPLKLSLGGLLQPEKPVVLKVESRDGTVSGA
CYP2D6, sequence (P10635 whole entry): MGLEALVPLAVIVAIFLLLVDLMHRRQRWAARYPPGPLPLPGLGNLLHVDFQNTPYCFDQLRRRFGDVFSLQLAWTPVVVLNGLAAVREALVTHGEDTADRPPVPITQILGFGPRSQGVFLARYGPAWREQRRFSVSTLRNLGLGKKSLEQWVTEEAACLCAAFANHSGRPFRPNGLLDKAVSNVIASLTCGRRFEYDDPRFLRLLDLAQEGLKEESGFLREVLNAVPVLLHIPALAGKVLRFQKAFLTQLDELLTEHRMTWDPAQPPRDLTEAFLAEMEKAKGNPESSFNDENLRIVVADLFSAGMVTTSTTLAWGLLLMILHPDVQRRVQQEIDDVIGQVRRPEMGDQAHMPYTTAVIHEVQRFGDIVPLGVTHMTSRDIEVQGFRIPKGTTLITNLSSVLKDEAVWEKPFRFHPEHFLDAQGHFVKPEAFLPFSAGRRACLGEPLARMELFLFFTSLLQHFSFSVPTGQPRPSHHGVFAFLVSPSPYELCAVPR
rat mGlu4, sequence (P31423 33-912): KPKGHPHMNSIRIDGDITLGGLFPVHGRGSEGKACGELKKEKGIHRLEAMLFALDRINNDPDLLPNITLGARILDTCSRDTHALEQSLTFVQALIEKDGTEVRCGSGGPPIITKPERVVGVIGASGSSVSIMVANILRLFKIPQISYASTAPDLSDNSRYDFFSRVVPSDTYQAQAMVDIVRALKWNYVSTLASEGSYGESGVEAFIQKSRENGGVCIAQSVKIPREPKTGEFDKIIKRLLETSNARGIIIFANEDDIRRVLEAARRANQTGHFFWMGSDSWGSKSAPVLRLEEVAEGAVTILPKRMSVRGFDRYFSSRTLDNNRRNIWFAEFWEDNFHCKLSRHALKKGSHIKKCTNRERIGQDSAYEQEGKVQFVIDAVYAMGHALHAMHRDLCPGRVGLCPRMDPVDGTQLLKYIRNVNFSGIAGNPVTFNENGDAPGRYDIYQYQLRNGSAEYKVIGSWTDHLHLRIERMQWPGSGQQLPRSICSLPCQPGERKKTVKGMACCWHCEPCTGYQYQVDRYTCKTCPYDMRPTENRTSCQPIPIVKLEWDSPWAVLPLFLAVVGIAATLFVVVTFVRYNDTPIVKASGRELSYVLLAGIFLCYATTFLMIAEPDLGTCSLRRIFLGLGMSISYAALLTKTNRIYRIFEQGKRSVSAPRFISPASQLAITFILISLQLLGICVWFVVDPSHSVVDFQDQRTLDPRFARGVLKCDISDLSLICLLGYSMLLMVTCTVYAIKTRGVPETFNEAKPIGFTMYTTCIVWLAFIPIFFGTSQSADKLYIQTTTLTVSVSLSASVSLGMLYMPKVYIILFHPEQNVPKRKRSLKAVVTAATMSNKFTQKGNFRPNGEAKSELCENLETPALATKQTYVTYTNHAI

**Q.** Which EC50 [1] does the source give for `O=C(Nc1ccc(NC(=O)c2ccccc2Cl)c(C(F)(F)F)c1)c1ccccn1` [Compound 10b] here?
**A.** The EC50 was 0.556 µM.

**Q.** Which CNS penetration [2] does the source give for `COc1cc(NC(=O)c2ccccn2)ccc1Cl` [Compound 3] here?
**A.** Its CNS penetration is “CNS penetrant”.

**Q.** Which “GluMax (%Cmpd 1), rat mGlu4” value [3] does the source give for `COc1cc(NC(=O)c2nccs2)ccc1NC(=O)c1ccccc1Cl` [Compound 9e] here?
**A.** Its value is 133.9 %Cmpd 1.

**Q.** What about the “Rat Clint” value [4] of the same molecule?
**A.** The value was “poor metabolic stability”.

**Q.** What about the CLint scaled at 1 µM [4] of the same molecule?
**A.** Its CLint scaled at 1 µM is 185 mL/min/kg.

**Q.** With `COc1ccccc1C(=O)n1ccc2cc(NC(=O)c3ccccn3)ccc21` [Compound 15] as the molecule, how does the “Rat Clint” value [4] read?
**A.** Its value is “poor metabolic stability”.

**Q.** What about the CLint scaled at 1 µM [4] of the same molecule?
**A.** The CLint scaled at 1 µM was 605 mL/min/kg.

**Q.** Which EC50 [1] does the source give for `O=C(Nc1ccc(NC(=O)c2ccccc2Cl)cc1)c1ccccn1` [Compound 10c] here?
**A.** Its EC50 is 3.75 µM.

**Q.** With `O=C(Nc1ccc(NC(=O)c2ccccc2Cl)c(F)c1)c1ccccn1` [Compound 10d] as the molecule, how does the CLint scaled at 1 µM [4] read?
**A.** Its CLint scaled at 1 µM is 31.2 mL/min/kg.

**Q.** Which results are given for `O=C(Nc1ccc(NC(=O)c2ccccc2Cl)c(Cl)c1)c1ccccn1` [Compound 10a, N-(3-chloro-4-(2-chlorobenzamido)phenyl)picolinamide]?
**A.** IC50 [5]: > 30 µM; IC50 [6]: 11.8 µM; IC50 [7]: > 30 µM; IC50 [8]: 13.1 µM; Rat Clint [4]: acceptable; CLint scaled at 1 µM [4]: 44.9 mL/min/kg

**Q.** With `Cc1ccccc1C(=O)Nc1ccc(NC(=O)c2ccccn2)cc1Cl` [Compound 12a, N-(3-chloro-4-(2-methylbenzamido)phenyl)picolinamide] as the molecule, how does the IC50 [5] read?
**A.** Its IC50 is greater than 30 µM.

**Q.** And the IC50 ([5]; human)?
**A.** The IC50 was greater than 10 µM.

**Q.** What about the IC50 [6] of the same molecule?
**A.** The IC50 was 14.1 µM.

**Q.** What about the IC50 [7] of the same molecule?
**A.** The IC50 was greater than 30 µM.

**Q.** And the IC50 [8]?
**A.** Its IC50 is 12 µM.

**Q.** And the “Rat Clint” value [4]?
**A.** Its value is “acceptable”.

**Q.** What about the CLint scaled at 1 µM [4] of the same molecule?
**A.** The CLint scaled at 1 µM was 46.2 mL/min/kg.

**Q.** With `COc1cc(NC(=O)c2ccccn2)ccc1NC(=O)c1ccccc1Cl` [Compound 9g, N-(4-(2-chlorobenzamido)-3-methoxyphenyl)picolinamide] as the molecule, how does the “GluMax (%Cmpd 1), rat mGlu4” value [3] read?
**A.** The value was 147.0 %Cmpd 1.

**Q.** What about the IC50 [5] of the same molecule?
**A.** The IC50 was greater than 30 µM.

**Q.** And the IC50 [6]?
**A.** Its IC50 is 14.3 µM.

**Q.** What about the IC50 [7] of the same molecule?
**A.** Its IC50 is greater than 30 µM.

**Q.** And the IC50 [8]?
**A.** Its IC50 is 12.8 µM.

**Q.** What about the CLint scaled at 1 µM [4] of the same molecule?
**A.** The CLint scaled at 1 µM was 42.6 mL/min/kg.

**Q.** With `O=C(Nc1ccc(NC(=O)c2ccc(F)cc2Cl)c(Cl)c1)c1ccccn1` [Compound 12d] as the molecule, how does the CLint scaled at 1 µM [4] read?
**A.** Its CLint scaled at 1 µM is 54 mL/min/kg.

**Q.** For `COc1cc(NC(=O)c2cnccn2)ccc1NC(=O)c1ccccc1Cl` [Compound 9h], which EC50 [1] is on record?
**A.** Its EC50 is 0.0995 µM.

**Q.** For `O=C(Nc1ccccc1)[C@]12C[C@H]1/C(=N\O)c1ccccc1O2` (stereo in doubt) [Compound 1, N-phenyl-7-(hydroxyimino)cyclopropa[b]chromen-1a-carboxamide], which “activity at mGlu1” value [9] is on record?
**A.** The value was “partial antagonist activity”.

**Q.** And the “activity in acute rodent models of Parkinson's disease” value [10]?
**A.** The value was “active”.
